The test system of one assay is HeLa cells. Briefly: Proliferation assay (HeLa cell line). Format: cell-based. Particulars: read-out: Biological Assay 2: Proliferation assay (HeLa cell line) median IC50.
Assay [1] concerns the target catalytic domain of human Bub1 (amino acids 704-1085) (Homo sapiens (Human), UniProt O43683). As to the kind of experiment: Bub1 kinase assay (TR-FRET). It counts as biochemical. To be noted: 10 μM ATP, 1 μM peptide substrate; read-out: Biological Assay 1: Bub1 kinase assay median IC50. In a few lines:
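Phosphoserine product detected by TR-FRET (Eu-labeled anti-mouse IgG/anti-phosphoserine antibody to streptavidin-XL665) after 1 h at 22 °C. IC50 from 4-parameter logistic fit.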

Where [2] appears, read: Homo sapiens, 96 h, 4 days, crystal violet.

We go through 29 molecules from patent US10266548B2, “Substituted benzylindazoles for use as Bub1 kinase inhibitors in the treatment of hyperproliferative diseases” (Bayer Intellectual Property GmbH, priority 2011, dated 2019).

Read-outs that look alike come from different tables or passages of the source.

Turning to `COc1cc(Cn2nc(-c3ncc(OC)c(Nc4ccncc4)n3)c3ccccc32)cc(OC)c1` [Example 2-29-1, 2-[1-(3,5-dimethoxybenzyl)-1H-indazol-3-yl]-5-methoxy-N-(pyridin-4-yl)pyrimidin-4-amine], the values for the IC50 (with HeLa cells (setting [2]); in assay [1]) were 9 µM and 23 nM, respectively.
Regarding `COc1cnc(-c2nn(Cc3ccc(F)cc3)c3ccccc23)nc1Nc1ccncc1` [Example 2-36-1, 2-[1-(4-fluorobenzyl)-1H-indazol-3-yl]-5-methoxy-N-(pyridin-4-yl)pyrimidin-4-amine], the IC50 is ≥ 10 µM with HeLa cells (setting [2]) and 58 nM in assay [1].
The corresponding values for `CCOC(=O)COc1cnc(-c2nn(Cc3c(F)cc(OCC)cc3F)c3ccccc23)nc1Nc1ccncc1` [Example 4-14, ethyl ({2-[1-(4-ethoxy-2,6-difluorobenzyl)-1H-indazol-3-yl]-4-(pyridin-4-ylamino)pyrimidin-5-yl}oxy)acetate] are ≥ 10 µM and 12 nM.
As for `CCOc1cc(F)c(Cn2nc(-c3ncc(OCC(=O)N4CC(F)C4)c(Nc4ccncc4)n3)c3ccccc32)c(F)c1` [Example 4-21, 2-({2-[1-(4-ethoxy-2,6-difluorobenzyl)-1H-indazol-3-yl]-4-(pyridin-4-ylamino)pyrimidin-5-yl}oxy)-1-(3-fiuoroazetidin-1-yl)ethanone], the IC50 is 3.8 µM in the assay on HeLa cells (Homo sapiens, 96 h) and 7.8 nM in assay [1].
With `CCOc1cc(F)c(Cn2nc(-c3ncc(O)c(N(c4ccncc4)C(F)F)n3)c3ccccc32)c(F)c1` [Example 10-3, 4-[(difluoromethyl) (pyridin-4-yl)amino]-2-[1-(4-ethoxy-2,6-difluorobenzyl)-1H-indazol-3-yl]pyrimidin-5-ol], the IC50 with HeLa cells (setting [2]) came out at 9.6 µM; in assay [1] it was 360 nM.
For the molecule `COc1cnc(-c2nn(Cc3ccccc3Br)c3ccccc23)nc1Nc1ccncc1` [Example 2-21-1, 2-[1-(2-bromobenzyl)-1H-indazol-3-yl]-5-methoxy-N-(pyridin-4-yl)pyrimidin-4-amine], the IC50 is ≥ 10 µM in the assay on HeLa cells (Homo sapiens, 96 h) and 12 nM in assay [1].
`COc1cnc(-c2nn(Cc3c(Cl)ccc(C(=O)N4CCOCC4)c3Cl)c3ccccc23)nc1Nc1ccncc1` [Example 20-5, [2,4-dichloro-3-({3-[5-methoxy-4-(pyridin-4-yla-mino)pyrimidin-2-yl]-1H-indazol-1-yl}methyl)phenyl] (morpholin-4-yl)methanone]: the results for the IC50 (in the assay on HeLa cells (setting [2]); in assay [1]) were 5.9 µM and 8800 nM, respectively.
For `Oc1cnc(-c2nn(Cc3ccccc3F)c3ccccc23)nc1Nc1ccncc1` [Example 3-3, 2-[1-(2-fluorobenzyl)-1H-indazol-3-yl]-4-(pyridin-4-ylamino)pyrimidin-5-ol], the IC50 is ≥ 10 µM in the assay on HeLa cells (Homo sapiens, 96 h) and 15 nM in assay [1].
For `COc1cnc(-c2nn(Cc3ccccc3F)c3ccccc23)nc1Nc1ccncc1` [Example 24-3, 2-[1-(2-fluorobenzyl)-1H-indazol-3-yl]-5-methoxy-N-(pyridin-4-yl)pyrimidin-4-amine] the same measures were 9.3 µM and 13 nM.
Turning to `COc1cnc(-c2nn(Cc3ccc(-n4cccn4)cc3)c3ccccc23)nc1Nc1ccncc1` [Example 2-8-3, 5-methoxy-2-{1-[4-(1H-pyrazol-1-yl)benzyl]-1H-indazol-3-yl}-N-(pyridin-4-yl)pyrimidin-4-amine], the IC50 was determined as 10 µM in the assay with HeLa cells (setting [2]) and 57 nM in assay [1].
As to `COc1cnc(-c2nn(Cc3cccc(SC(F)(F)F)c3)c3ccccc23)nc1Nc1ccncc1` [Example 2-7-3, 5-methoxy-N-(pyridin-4-yl)-2-(1-{3-[(trifluoromethyl)sulfanyl]benzyl}-1H-indazol-3-yl)pyrimidin-4-amine], the IC50 was ≥ 10 µM with HeLa cells (Homo sapiens, 96 h) and 430 nM in assay [1].
Consider `COc1cnc(-c2nn(Cc3ccccc3F)c3ccccc23)nc1N(C)c1ccncc1` [Example 23-1, 2-[1-(2-fluorobenzyl)-1H-indazol-3-yl]-5-methoxy-N-methyl-N-(pyridin-4-yl)pyrimidin-4-amine], for which the IC50 in the assay with HeLa cells (setting [2]) was ≥ 10 µM; in assay [1], 1400 nM.
For `CCOc1cc(F)c(Cn2nc(-c3ncc(OCCS(C)(=O)=O)c(Nc4ccncc4)n3)c3ccccc32)c(F)c1` [Example 37-1, 2-[1-(4-ethoxy-2,6-difluorobenzyl)-1H-indazol-3-yl]-5-[2-(methylsulfonyl)ethoxy]-N-(pyridin-4-yl)pyrimidin-4-amine] the same measures were 4.2 µM and 5.7 nM.
Take `COc1cnc(-c2nn(Cc3c(F)cc(O)cc3F)c3ccccc23)nc1Nc1ccncc1C(N)=O` [Example 25-4]: the IC50 in the assay on HeLa cells (4 days, crystal violet) was 10 µM; in assay [1], 5.03 nM.
As for `NC(=O)c1cnccc1Nc1nc(-c2nn(Cc3ccccc3F)c3ccccc23)ncc1OCCO` [Example 13-5, 4-({2-[1-(2-fluorobenzyl)-1H-indazol-3-yl]-5-(2-hydroxyethoxy)pyrimidin-4-yl}amino)pyridine-3-carboxamide], the IC50 was ≥ 10 µM in the assay on HeLa cells (setting [2]) and 6.5 nM in assay [1].
Consider `CCOc1cc(F)c(Cn2nc(-c3nccc(N(C(=O)C4CCOCC4)c4ccncc4)n3)c3ccccc32)c(F)c1` [Example 16-3, N-{2-[1-(4-ethoxy-2,6-difluorobenzyl)-1H-indazol-3-yl]pyrimidin-4-yl}-N-(pyridin-4-yl)tetrahydro-2H-pyran-4-carboxamide], for which the IC50 with HeLa cells (Homo sapiens, 96 h) came to 4.1 µM; in assay [1], 210 nM.
`COc1cnc(-c2nn(Cc3ccc(S(F)(F)(F)(F)F)cc3)c3ccccc23)nc1Nc1ccncc1` [Example 2-3-3, 5-methoxy-2-{1-[4-(pentafluoro-λ^6-sulfanyl)benzyl]-1H-indazol-3-yl}-N-(pyridin-4-yl)pyrimidin-4-amine]: the IC50 in the assay with HeLa cells (setting [2]) is 8.5 µM; in assay [1], 360 nM.
As to `COc1cnc(-c2nn(Cc3cc(C)c(C)cc3Cl)c3ccccc23)nc1Nc1ccncc1` [Example 2-3-1, 2-[1-(2-chloro-4,5-dimethylbenzyl)-1H-indazol-3-yl]-5-methoxy-N-(pyridin-4-yl)pyrimidin-4-amine], the IC50 was 3 µM with HeLa cells (setting [2]) and 4.4 nM in assay [1].
On to `COc1cnc(-c2nn(Cc3cc(F)ccc3Cl)c3ccccc23)nc1Nc1ccncc1` [Example 2-31-1, 2-[1-(2-chloro-5-fluorobenzyl)-1H-indazol-3-yl]-5-methoxy-N-(pyridin-4-yl)pyrimidin-4-amine], for which the IC50 was ≥ 10 µM in the assay on HeLa cells (setting [2]) and 28 nM in assay [1].
As for `COc1cnc(-c2nn(Cc3c(F)cc(C4CC4)cc3F)c3ccccc23)nc1Nc1ccncc1` [Example 6-1, 2-[1-(4-cyclopropyl-2,6-difluorobenzyl)-1H-indazol-3-yl]-5-methoxy-N-(pyridin-4-yl)pyrimidin-4-amine], the IC50 amounted to 3.1 µM in the assay on HeLa cells (setting [2]) and 3.9 nM in assay [1].
Take `CCOc1cc(F)c(Cn2nc(-c3ncc(OCC4(CO)COC4)c(Nc4ccncc4)n3)c3ccccc32)c(F)c1` [Example 4-1, {3-[({2-[1-(4-ethoxy-2,6-difluorobenzyl)-1H-indazol-3-yl]-4-(pyridin-4-ylamino)pyrimidin-5-yl}oxy)methyl]oxetan-3-yl}methanol]: the IC50 in the assay with HeLa cells (Homo sapiens, 96 h) is 3.5 µM; in assay [1], 2.4 nM.
On to `CCOc1cc(F)c(Cn2nc(-c3ncc(OC)c(Nc4ccncc4)n3)c3ccccc32)c(OC)c1` [Example 2-53-1], for which the IC50 in the assay on HeLa cells (4 days, crystal violet) stood at 3.4 µM; in assay [1] it was 83 nM.
Take `CCOc1cc(F)c(Cn2nc(-c3ncc(OC)c(Nc4cc[nH]c(=O)c4)n3)c3ccccc32)c(F)c1` [Example 24-8, 4-({2-[1-(4-ethoxy-2,6-difluorobenzyl)-1H-indazol-3-yl]-5-methoxypyrimidin-4-yl}amino)pyridin-2(1H)-one]: the IC50 is 10 µM in the assay on HeLa cells (Homo sapiens, 96 h) and 26 nM in assay [1].
On to `COc1cnc(-c2nn(Cc3c(F)cc(C(C)=O)cc3F)c3ccccc23)nc1Nc1ccncc1` [Example 7-1, 1-[3,5-difluoro-4-({3-[5-methoxy-4-(pyridin-4-ylamino)pyrimidin-2-yl]-1H-indazol-1-yl}methyl)phenyl]ethanone], for which the IC50 in the assay on HeLa cells (Homo sapiens, 96 h) was 4.4 µM; in assay [1] it was 3 nM.
As for `COc1cnc(-c2nn(Cc3cccc4c3OCCCO4)c3ccccc23)nc1Nc1ccncc1` [Example 2-6-3, 2-[1-(3,4-dihydro-2H-1,5-benzo-dioxepin-6-ylmethyl)-1H-indazol-3-yl]-5-methoxy-N-(pyridin-4-yl)pyrimidin-4-amine], the IC50 was ≥ 10 µM with HeLa cells (Homo sapiens, 96 h) and 59 nM in assay [1].
As for `COc1cnc(-c2nn(Cc3c(OCC(F)(F)F)cc(Br)cc3OCC(F)(F)F)c3ccccc23)nc1Nc1ccncc1` [Example 18-2], the IC50 with HeLa cells (4 days, crystal violet) came out at 3.5 µM; in assay [1], 2800 nM.
Regarding `COc1ccc(Cn2nc(-c3ncc(OC)c(Nc4ccncc4C(F)(F)F)n3)c3ccccc32)cc1` [Example 27-1, 5-methoxy-2-[1-(4-methoxybenzyl)-1H-indazol-3-yl]-N-[3-(trifluoromethyl)pyridin-4-yl]pyrimidin-4-amine], the IC50 in the assay on HeLa cells (Homo sapiens, 96 h) was 3.9 µM; in assay [1] it was 55 nM.
Take `COc1cnc(-c2nn(Cc3c(F)cc(OCCOC(C)=O)cc3F)c3ccccc23)nc1Nc1ccncc1` [Example 2-51-1, 2-[3,5-difluoro-4-({3-[5-methoxy-4-(pyridin-4-ylamino)pyrimidin-2-yl]-1H-indazol-1-yl}methyl)phenoxy]ethyl acetate]: the IC50 in the assay on HeLa cells (Homo sapiens, 96 h) is 2.7 µM; in assay [1], 10 nM.
As for `COc1cnc(-c2nn(Cc3cccc(C(C)(C)CO)c3)c3ccccc23)nc1Nc1ccncc1` [Example 8-3, 2-[3-({3-[5-methoxy-4-(pyridin-4-ylamino)pyrimidin-2-yl]-1H-indazol-1-yl}methyl)phenyl]-2-methylpropan-1-ol], the IC50 is ≥ 10 µM in the assay on HeLa cells (setting [2]) and 240 nM in assay [1].
